Measured values reported in paper PMC7827406, “Structure–Activity Relationship (SAR) Study of Spautin-1 to Entail the Discovery of Novel NEK4 Inhibitors” (International Journal of Molecular Sciences, 2021).
Read-outs that look alike come from different tables or passages of the source.

Columns and labels:
Test in all cases: biochemical
Set-up in all cases: Eurofins KinaseProfiler full panel at Km ATP, residual kinase activity (%) relative to DMSO
IRAK4(h) = biological target: T1, IRAK4(h) (Homo sapiens, UniProt Q9NWZ3)
T1 sequence (Q9NWZ3 1-460): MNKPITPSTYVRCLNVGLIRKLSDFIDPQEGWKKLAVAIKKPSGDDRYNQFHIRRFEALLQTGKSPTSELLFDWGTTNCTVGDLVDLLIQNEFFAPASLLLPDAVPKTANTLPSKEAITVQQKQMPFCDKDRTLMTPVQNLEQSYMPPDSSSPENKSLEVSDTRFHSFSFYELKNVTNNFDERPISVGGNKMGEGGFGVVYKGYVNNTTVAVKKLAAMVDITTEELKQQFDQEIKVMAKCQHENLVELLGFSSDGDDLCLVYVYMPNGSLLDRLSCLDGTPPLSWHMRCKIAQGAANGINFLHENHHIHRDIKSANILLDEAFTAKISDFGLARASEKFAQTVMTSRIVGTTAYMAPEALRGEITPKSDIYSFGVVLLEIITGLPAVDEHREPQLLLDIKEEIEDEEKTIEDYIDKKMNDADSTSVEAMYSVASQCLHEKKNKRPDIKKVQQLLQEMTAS
In short: (§1)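 Two 10 µM single-concentration screens were run: a competition-binding screen, in which DNA-tagged kinase bound to immobilized ligands was quantified by qPCR, and a radiometric activity panel at Km ATP. Each is expressed as residual kinase activity (%).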

KDR(h) = KDR(h) (Homo sapiens, UniProt P35968)
In short: as §1

MAP4K4(h) = MAP4K4(h) (Homo sapiens, UniProt O95819)
In short: as §1

PAK3(h) = PAK3(h) (Homo sapiens, UniProt O75914)
In short: as §1

PAK6(h) = PAK6(h) (Homo sapiens, UniProt Q9NQU5)
In short: as §1

PKD3(h) = biological target: T2, PKD3(h) (Homo sapiens, UniProt O94806)
T2 construct: gene PRKD3
T2 sequence (O94806 1-890): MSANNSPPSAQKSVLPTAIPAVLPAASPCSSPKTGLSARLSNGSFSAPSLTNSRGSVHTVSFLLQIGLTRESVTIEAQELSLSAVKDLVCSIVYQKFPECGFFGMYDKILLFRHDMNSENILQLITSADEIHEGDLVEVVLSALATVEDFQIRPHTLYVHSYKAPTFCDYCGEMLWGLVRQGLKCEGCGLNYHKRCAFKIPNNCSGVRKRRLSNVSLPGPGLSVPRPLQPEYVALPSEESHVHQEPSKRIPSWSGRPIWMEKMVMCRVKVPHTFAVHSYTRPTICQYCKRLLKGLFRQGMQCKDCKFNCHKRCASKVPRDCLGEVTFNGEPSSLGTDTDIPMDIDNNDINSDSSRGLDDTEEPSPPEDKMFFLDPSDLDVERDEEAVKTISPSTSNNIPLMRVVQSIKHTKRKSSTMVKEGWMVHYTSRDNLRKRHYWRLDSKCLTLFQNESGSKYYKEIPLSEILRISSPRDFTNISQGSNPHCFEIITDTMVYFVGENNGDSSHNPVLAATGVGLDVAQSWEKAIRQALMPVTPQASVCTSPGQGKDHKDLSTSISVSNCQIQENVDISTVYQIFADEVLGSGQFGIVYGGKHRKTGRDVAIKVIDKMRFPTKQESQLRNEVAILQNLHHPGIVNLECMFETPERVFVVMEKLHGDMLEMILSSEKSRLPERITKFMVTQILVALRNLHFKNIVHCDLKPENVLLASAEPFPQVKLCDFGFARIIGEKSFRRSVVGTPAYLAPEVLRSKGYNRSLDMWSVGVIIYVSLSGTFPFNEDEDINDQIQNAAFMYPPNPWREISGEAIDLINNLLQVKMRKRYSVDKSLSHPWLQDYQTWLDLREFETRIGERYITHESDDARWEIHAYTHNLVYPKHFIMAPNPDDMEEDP
In short: as §1

Plk1(h) = Plk1(h) (Homo sapiens, UniProt P53350)
In short: as §1

SRPK1(h) = SRPK1(h) (Homo sapiens, UniProt Q96SB4)
In short: as §1

[1] = read-out: Residual activity (%) Spautin-1 5aa
[2] = read-out: Residual activity (%) 5as
[3] = read-out: Residual activity (%) 5at
[4] = read-out: Residual activity (%) 5ay

KDR(h), sequence (P35968 whole entry): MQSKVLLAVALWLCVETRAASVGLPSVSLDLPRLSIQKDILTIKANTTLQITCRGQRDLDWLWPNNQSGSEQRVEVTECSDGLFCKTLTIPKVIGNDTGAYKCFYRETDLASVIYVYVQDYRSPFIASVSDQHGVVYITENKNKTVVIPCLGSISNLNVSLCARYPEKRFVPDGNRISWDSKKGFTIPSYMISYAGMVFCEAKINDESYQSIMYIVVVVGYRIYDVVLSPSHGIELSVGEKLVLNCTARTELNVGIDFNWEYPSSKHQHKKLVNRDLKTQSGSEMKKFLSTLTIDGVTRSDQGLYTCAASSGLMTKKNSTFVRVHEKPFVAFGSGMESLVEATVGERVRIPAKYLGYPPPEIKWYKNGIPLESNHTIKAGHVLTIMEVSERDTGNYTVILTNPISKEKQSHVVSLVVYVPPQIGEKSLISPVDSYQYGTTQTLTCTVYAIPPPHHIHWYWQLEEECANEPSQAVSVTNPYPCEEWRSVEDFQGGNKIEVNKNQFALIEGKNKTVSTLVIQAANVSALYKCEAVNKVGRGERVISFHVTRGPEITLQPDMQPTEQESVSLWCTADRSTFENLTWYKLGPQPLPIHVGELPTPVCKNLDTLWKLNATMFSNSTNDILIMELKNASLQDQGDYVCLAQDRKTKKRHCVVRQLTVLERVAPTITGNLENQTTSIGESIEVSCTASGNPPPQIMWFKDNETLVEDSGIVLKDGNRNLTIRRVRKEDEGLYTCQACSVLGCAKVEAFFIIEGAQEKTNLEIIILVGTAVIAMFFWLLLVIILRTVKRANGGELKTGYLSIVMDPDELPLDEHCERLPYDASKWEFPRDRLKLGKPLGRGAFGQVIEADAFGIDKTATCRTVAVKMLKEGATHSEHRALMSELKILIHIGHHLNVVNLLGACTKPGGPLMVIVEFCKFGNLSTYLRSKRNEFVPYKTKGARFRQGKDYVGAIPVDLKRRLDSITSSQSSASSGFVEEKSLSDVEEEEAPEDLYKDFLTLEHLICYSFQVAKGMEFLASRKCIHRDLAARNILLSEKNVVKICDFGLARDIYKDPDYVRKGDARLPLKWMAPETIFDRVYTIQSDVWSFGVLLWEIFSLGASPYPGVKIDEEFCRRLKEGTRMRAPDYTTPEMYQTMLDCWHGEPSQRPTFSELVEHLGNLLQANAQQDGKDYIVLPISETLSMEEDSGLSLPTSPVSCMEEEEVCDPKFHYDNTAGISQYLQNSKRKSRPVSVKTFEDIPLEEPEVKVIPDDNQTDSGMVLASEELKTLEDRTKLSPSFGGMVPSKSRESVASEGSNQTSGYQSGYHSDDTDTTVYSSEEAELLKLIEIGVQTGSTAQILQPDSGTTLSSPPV
SRPK1(h), sequence (Q96SB4 whole entry): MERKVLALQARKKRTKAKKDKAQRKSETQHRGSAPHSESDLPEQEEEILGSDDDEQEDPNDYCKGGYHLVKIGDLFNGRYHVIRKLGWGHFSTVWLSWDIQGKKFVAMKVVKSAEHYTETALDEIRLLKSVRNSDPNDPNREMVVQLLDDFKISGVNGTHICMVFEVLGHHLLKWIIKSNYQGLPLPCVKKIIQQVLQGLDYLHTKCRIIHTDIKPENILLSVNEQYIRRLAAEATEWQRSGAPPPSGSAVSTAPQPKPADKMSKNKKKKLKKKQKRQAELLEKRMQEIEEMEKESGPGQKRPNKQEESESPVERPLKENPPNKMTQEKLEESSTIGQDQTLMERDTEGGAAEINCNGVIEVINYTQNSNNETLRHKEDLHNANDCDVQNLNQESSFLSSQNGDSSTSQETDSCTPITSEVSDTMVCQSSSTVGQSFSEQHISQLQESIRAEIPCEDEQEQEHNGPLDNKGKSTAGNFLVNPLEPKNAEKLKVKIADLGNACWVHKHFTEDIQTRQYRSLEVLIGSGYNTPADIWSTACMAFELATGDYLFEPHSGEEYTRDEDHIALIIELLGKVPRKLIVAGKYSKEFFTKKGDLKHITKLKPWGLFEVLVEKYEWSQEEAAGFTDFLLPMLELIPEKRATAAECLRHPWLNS
PAK6(h), sequence (Q9NQU5 whole entry): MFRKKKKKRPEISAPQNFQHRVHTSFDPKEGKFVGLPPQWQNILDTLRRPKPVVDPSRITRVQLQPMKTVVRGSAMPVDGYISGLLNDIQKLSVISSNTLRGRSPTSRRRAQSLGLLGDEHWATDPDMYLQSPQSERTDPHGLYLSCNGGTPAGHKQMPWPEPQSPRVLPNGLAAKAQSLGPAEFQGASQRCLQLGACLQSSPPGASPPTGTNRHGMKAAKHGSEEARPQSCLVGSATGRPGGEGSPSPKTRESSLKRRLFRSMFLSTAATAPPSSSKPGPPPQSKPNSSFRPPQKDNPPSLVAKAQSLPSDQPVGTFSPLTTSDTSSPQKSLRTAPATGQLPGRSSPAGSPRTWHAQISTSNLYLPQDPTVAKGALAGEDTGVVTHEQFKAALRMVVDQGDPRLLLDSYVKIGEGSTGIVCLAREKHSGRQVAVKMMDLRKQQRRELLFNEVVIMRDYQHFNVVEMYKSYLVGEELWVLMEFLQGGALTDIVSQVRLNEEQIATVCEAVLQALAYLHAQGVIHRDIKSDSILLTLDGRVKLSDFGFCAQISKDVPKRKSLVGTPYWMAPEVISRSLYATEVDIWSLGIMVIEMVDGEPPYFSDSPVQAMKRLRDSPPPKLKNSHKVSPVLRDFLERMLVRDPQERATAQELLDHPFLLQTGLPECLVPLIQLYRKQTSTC
MAP4K4(h), sequence (O95819 whole entry): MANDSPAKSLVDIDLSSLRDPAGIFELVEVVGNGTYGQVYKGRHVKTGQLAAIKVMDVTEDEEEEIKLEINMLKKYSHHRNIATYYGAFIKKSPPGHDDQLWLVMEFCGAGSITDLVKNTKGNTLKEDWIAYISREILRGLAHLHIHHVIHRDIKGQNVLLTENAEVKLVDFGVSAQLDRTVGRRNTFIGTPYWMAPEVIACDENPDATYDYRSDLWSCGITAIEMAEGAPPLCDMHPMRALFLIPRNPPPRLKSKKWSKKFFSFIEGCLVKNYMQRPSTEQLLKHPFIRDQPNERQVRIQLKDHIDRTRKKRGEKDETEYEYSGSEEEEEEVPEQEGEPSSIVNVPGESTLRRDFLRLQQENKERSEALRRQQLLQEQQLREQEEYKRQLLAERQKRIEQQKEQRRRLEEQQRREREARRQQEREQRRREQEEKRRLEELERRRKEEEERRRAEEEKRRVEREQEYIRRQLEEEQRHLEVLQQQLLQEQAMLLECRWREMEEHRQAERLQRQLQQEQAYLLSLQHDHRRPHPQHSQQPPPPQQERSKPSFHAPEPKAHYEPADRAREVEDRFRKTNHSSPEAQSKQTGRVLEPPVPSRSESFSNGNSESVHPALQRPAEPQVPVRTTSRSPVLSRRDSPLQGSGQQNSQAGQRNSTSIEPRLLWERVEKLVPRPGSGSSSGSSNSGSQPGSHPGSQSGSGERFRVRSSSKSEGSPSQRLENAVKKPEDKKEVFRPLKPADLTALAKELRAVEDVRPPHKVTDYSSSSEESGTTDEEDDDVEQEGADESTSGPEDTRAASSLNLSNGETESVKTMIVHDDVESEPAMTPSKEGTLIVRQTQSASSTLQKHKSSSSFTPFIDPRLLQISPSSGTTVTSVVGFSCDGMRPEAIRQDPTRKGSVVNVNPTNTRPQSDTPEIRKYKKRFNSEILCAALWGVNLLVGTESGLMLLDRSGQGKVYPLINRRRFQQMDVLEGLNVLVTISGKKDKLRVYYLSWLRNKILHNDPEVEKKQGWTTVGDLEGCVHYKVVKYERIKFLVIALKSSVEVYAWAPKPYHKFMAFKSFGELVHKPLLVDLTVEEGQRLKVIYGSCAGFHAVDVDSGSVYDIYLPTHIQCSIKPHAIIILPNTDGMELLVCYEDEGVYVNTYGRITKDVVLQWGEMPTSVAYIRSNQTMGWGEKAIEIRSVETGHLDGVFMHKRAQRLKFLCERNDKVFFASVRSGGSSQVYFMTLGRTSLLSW
Plk1(h), sequence (P53350 whole entry): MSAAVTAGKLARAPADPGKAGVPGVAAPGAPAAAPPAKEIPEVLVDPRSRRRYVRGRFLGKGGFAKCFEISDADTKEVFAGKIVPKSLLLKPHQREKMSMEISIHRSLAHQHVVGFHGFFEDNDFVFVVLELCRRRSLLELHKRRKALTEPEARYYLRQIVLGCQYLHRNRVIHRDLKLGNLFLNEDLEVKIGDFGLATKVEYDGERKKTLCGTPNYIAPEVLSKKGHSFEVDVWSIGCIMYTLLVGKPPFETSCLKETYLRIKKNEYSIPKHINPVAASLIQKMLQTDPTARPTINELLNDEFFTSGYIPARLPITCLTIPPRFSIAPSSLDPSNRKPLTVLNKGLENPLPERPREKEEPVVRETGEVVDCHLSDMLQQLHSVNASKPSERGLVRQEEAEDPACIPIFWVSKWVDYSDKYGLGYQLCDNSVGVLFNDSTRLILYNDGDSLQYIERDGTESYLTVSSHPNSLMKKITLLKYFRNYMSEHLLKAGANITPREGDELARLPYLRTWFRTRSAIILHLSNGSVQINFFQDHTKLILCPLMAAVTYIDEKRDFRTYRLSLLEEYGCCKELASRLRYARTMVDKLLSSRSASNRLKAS
PAK3(h), sequence (O75914 whole entry): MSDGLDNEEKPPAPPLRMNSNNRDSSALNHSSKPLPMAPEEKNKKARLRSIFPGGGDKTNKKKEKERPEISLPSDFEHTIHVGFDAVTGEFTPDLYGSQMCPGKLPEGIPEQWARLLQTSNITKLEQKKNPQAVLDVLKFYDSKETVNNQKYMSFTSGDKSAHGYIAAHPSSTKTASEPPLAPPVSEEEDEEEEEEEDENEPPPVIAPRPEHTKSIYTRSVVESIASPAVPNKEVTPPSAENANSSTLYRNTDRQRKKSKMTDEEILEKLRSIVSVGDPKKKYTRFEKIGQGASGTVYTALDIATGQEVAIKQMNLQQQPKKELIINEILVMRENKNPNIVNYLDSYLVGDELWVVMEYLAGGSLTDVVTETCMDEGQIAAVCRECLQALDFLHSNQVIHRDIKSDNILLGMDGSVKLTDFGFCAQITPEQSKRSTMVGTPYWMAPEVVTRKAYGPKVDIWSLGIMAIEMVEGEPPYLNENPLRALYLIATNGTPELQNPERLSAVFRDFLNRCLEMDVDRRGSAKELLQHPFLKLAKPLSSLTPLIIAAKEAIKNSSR

Q: How did the remaining activity at 10 µM (IRAK4(h); [1]) turn out when `Fc1ccc(CNc2ncnc3ccc(F)cc23)cc1` [5aa, 6-Fluoro-N-(4-fluorobenzyl)-4-Quinazolinamine] was run?
A: Its remaining activity at 10 µM is 96%.

Q: And the remaining activity at 10 µM (KDR(h); [1])?
A: The remaining activity at 10 µM was 86%.

Q: And the remaining activity at 10 µM (MAP4K4(h); [1])?
A: Its remaining activity at 10 µM is 75%.

Q: And the remaining activity at 10 µM (PAK3(h); [1])?
A: Its remaining activity at 10 µM is 96%.

Q: What about the remaining activity at 10 µM (PAK6(h); [1]) of the same molecule?
A: Its remaining activity at 10 µM is 92%.

Q: What about the remaining activity at 10 µM (PKD3(h); [1]) of the same molecule?
A: The remaining activity at 10 µM was 100%.

Q: And the remaining activity at 10 µM (Plk1(h); [1])?
A: The remaining activity at 10 µM was 93%.

Q: And the remaining activity at 10 µM (SRPK1(h); [1])?
A: Its remaining activity at 10 µM is 121%.

Q: What does the source list for `Fc1ccc(CCNc2ncnc3ccc(F)cc23)cc1` [5as, 6-Fluoro-N-[2-(4-Fluorophenyl)Ethyl]-4-Quinazolinamine]?
A: remaining activity at 10 µM (IRAK4(h); [2]): 92%; remaining activity at 10 µM (KDR(h); [2]): 77%; remaining activity at 10 µM (MAP4K4(h); [2]): 75%; remaining activity at 10 µM (PAK3(h); [2]): 107%; remaining activity at 10 µM (PAK6(h); [2]): 84%; remaining activity at 10 µM (PKD3(h); [2]): 114%; remaining activity at 10 µM (Plk1(h); [2]): 96%; remaining activity at 10 µM (SRPK1(h); [2]): 112%

Q: `Fc1ccc2ncnc(NCCc3ccc(Cl)cc3)c2c1` [5at, N-[2-(4-Chlorophenyl)Ethyl]-6-Fluoro-4-Quinazolinamine] was tested. Which remaining activity at 10 µM (IRAK4(h); [3]) did it give?
A: Its remaining activity at 10 µM is 103%.

Q: And the remaining activity at 10 µM (KDR(h); [3])?
A: Its remaining activity at 10 µM is 74%.

Q: And the remaining activity at 10 µM (MAP4K4(h); [3])?
A: Its remaining activity at 10 µM is 92%.

Q: And the remaining activity at 10 µM (PAK3(h); [3])?
A: The remaining activity at 10 µM was 93%.

Q: And the remaining activity at 10 µM (PAK6(h); [3])?
A: The remaining activity at 10 µM was 92%.

Q: What about the remaining activity at 10 µM (PKD3(h); [3]) of the same molecule?
A: The remaining activity at 10 µM was 102%.

Q: And the remaining activity at 10 µM (Plk1(h); [3])?
A: Its remaining activity at 10 µM is 92%.

Q: What about the remaining activity at 10 µM (SRPK1(h); [3]) of the same molecule?
A: Its remaining activity at 10 µM is 108%.

Q: `COc1ccc2ncnc(Nc3cccc(F)c3)c2c1` [5ay, N-(3-Fluorophenyl)-6-Methoxy-4-Quinazolinamine] was tested. Which remaining activity at 10 µM (IRAK4(h); [4]) did it give?
A: The remaining activity at 10 µM was 60%.

Q: And the remaining activity at 10 µM (KDR(h); [4])?
A: Its remaining activity at 10 µM is 64%.

Q: What about the remaining activity at 10 µM (MAP4K4(h); [4]) of the same molecule?
A: The remaining activity at 10 µM was 73%.

Q: And the remaining activity at 10 µM (PAK3(h); [4])?
A: The remaining activity at 10 µM was 99%.

Q: What about the remaining activity at 10 µM (PAK6(h); [4]) of the same molecule?
A: The remaining activity at 10 µM was 86%.

Q: What about the remaining activity at 10 µM (PKD3(h); [4]) of the same molecule?
A: Its remaining activity at 10 µM is 91%.

Q: And the remaining activity at 10 µM (Plk1(h); [4])?
A: The remaining activity at 10 µM was 96%.

Q: What about the remaining activity at 10 µM (SRPK1(h); [4]) of the same molecule?
A: Its remaining activity at 10 µM is 116%.
